Measurements reported in patent US20180263985A1, “MODULATORS OF TOLL-LIKE RECEPTORS FOR THE TREATMENT OF HIV” (Gilead Sciences, Inc., priority 2015, published 2018).
“And” between values parts separate entries of the source, which are not always exact repeats. Equal values may be shown once.

Tests used:
Assay type in all cases: cell-based, human
[1] = system: HIV-specific polyfunctional CD8 T cells; experiment: Induced HIV-specific polyfunctional CD8+ T cells in PBMC cultures from HIV-1 infected subjects on cART
CD4+ T Cells = experiment: Immune cell activation in PBMC cultures, flow cytometry: CD4+ T cells; conditions: 2 days, N = 6
Description: (§1) TLR8 is expressed on multiple immune cell subsets. To determine how treatment with a TLR8 modulating compound affects activation of distinct cell populations, PBMCs were purified from HIV-1 infected subjects on cART, as described in Example 121 (anonymized participant IDs 184, 185, 188, 189, 190, and 191). […] After incubation, PBMCs were harvested and stained with antibodies conjugated to specific fluorophores (BD Biosciences) to delineate immune cell subsets: CD4 T cells (CD3+CD4+CD8−), CD8 T cells (CD3+CD8+CD4−), NK cells (CD3−CD56+CD16+), monocytes (CD3−CD14+), B cells (CD3−CD19+), and peripheral dendritic cells (DCs), defined as positive for HLA-DR and negative for a panel of markers: CD3, CD14, CD16, CD19, CD20, CD56 (Lin-1 lineage panel, BD Biosciences).
(§2) Additional markers of activation, maturation, and effector function were included for cell subsets, as follows: CD4 and CD8 T cells (CD25, CD38, CD69, IFN-γ, granzyme B, perforin, TNF-α), NK cells (CD25, CD69, IFN-γ), monocytes (CD11c, CD16, CD80, CD86, CD163, TNF-α), B cells (CD40, CD69, CD80, CD86), and DC (CD11c, CD69, CD80, CD86, CD123, and CD163). Cells were stained for surface markers (CD3, CD4, CD8, CD11c, CD14, CD16, CD25, CD69, CD80, CD86, CD163), washed, treated with fixation and permeabilization buffer (eBioscience), and stained for intracellular markers (IFN-γ, granzyme B, perforin, TNF-α). Cells were evaluated by flow cytometry on a LSR Fortessa (BD Biosciences), and data was analyzed with FlowJo software (TreeStar).
(§3) Data are expressed as geometric mean percentage (%) and as geometric mean fold-activation (Fold) for each marker and for each PBMC subset obtained from 4 or 6 subjects, as indicated. Fold activation is calculated as a ratio of the % positive for each marker for each PBMC subset at the indicated concentration of the compound of Example 15 relative to % positive for DMSO treated samples. Fold activations that are 1.5 are in bold.

[2] = system: PBMC cultures from HIV-1 infected subjects on cART; experiment: Induced HIV-1 expression in PBMC cultures, HIV-1 RNA in supernatant after 4 days (COBAS TaqMan HIV-1 Test); conditions: for Geometric Mean with ≥2-Fold-Activation / Range with ≥2-Fold-Activation: N = 12; for N with ≥2-Fold-Activation: subjects; for Fold HIV-1 Activation: vs DMSO
Description: In some experiments, IL-15, the TLR8 modulating compound of Example 15 or the combination of IL-15 and Example 15 were used at the indicated concentrations (Table 4). The cultures were maintained in the presence of antivirals (elvitegravir and efavirenz at 100 nM each) to prevent viral spread and amplification in order to measure the quantity of virus produced (latency reversal) by the TLR8 modulating compounds. At the end of the incubation period, cell-free culture supernatants were harvested and HIV-1 RNA levels were quantified by the COBAS® AmpliPrep/COBAS®TaqMan HIV-1 Test, v2.0 (Roche).
In each table, fold-activation is calculated as a ratio of HIV-1 RNA copies per ml of cell culture supernatants from TLR8 agonist treated samples and DMSO treated controls. Geometric mean fold-activation from three independent incubation samples for each condition of each subject's PBMCs. Values in bold indicate ≥2-fold HIV activation.
To assess if the latency reversal induced by TLR8 agonism could further potentiate latency reversal by a separate mechanisms, we treated cells as described above with IL-15, Example 15, or a combination of IL-15 and Example 15 (Table 4).

Monocytes = experiment: Immune cell activation in PBMC cultures, flow cytometry: monocytes
Description: as §1, §2, §3

B Cells = experiment: Immune cell activation in PBMC cultures, flow cytometry: B cells; conditions: for B Cells CD69 Fold / B Cells CD80 Fold / B Cells CD69 % / B Cells CD80 %: 2 days, N = 4
Description: as §1, §2, §3

## CCCC[C@H](CO)Nc1nc(N)nc2cccnc12 [Example 15]
[1]; 100 nM
  Patients in whom increases in HIV-specific polyfunctional CD8 T cells were seen: 3 of 5
[1]; 100 nM, HIV peptide pool, 5 subjects
  Median HIV-specific polyfunctional CD8 T cells (% proliferating CD8+ cells double positive for IFN-γ and TNF-α): 0.99%
[1]; 1000 nM
  Patients in whom increases in HIV-specific polyfunctional CD8 T cells were seen: 4 of 5
[1]; 1000 nM with HIV specific peptide pool vs vehicle, p<0.05
  Fold increase of median HIV-specific polyfunctional CD8 T cells: 2.7 fold
CD4+ T Cells; 10 nM vs DMSO
  CD4+ T Cells CD25 Fold: 0.6 fold
  CD4+ T Cells CD69 Fold: 0.7 fold
  CD4+ T Cells Perforin Fold: 1.5 fold
CD4+ T Cells; 10 nM
  CD4+ T Cells CD25 %: 1.5%
  CD4+ T Cells CD69 %: 5.7%
CD4+ T Cells; 100 nM vs DMSO
  CD4+ T Cells CD25 Fold: 1.7 fold
  CD4+ T Cells CD69 Fold: 1.0 fold
  CD4+ T Cells Perforin Fold: 1.3 fold
CD4+ T Cells; 100 nM
  CD4+ T Cells CD25 %: 3.9%
  CD4+ T Cells CD69 %: 7.7%
CD4+ T Cells; 1000 nM vs DMSO
  CD4+ T Cells CD25 Fold: 1.8 fold
  CD4+ T Cells CD69 Fold: 1.5 fold
  CD4+ T Cells Perforin Fold: 1.8 fold
CD4+ T Cells; 1000 nM
  CD4+ T Cells CD25 %: 4.2%
CD4+ T Cells; 3000 nM vs DMSO
  CD4+ T Cells CD25 Fold: 1.3 fold
  CD4+ T Cells CD69 Fold: 1.7 fold
  CD4+ T Cells Perforin Fold: 2.1 fold
CD4+ T Cells; 3000 nM
  CD4+ T Cells CD25 %: 3.0%
  CD4+ T Cells Perforin %: 17.0%
[2]; 10 nM
  Subjects with ≥2-Fold-Activation (%): (42) %
  Geometric Mean with ≥2-Fold-Activation: 4.6 fold
  Range with ≥2-Fold-Activation: 2.2-20.1 fold
  N with ≥2-Fold-Activation: 5 of 12
[2]; 10 nM, one value per subject (IDs 172-183)
  Fold HIV-1 Activation: 2.6 fold and 2.2 fold and 4.7 fold and 1.2 fold and 1.9 fold and 1.3 fold and 0.3 fold and 0.5 fold and 1.0 fold and 4.1 fold and 0.8 fold
[2]; 100 nM
  Subjects with ≥2-Fold-Activation (%): (33) %
  Geometric Mean with ≥2-Fold-Activation: 4.8 fold
  Range with ≥2-Fold-Activation: 2.2-10.1 fold
  N with ≥2-Fold-Activation: 4 of 12
[2]; 100 nM, one value per subject (IDs 172-183)
  Fold HIV-1 Activation: 3.8 fold and 6.6 fold and 2.2 fold and 1.5 fold and 1.0 fold and 0.5 fold and 0.2 fold and 0.1 fold and 0.7 fold and 1.8 fold and 1.3 fold
[2]; 1,000 nM
  Subjects with ≥2-Fold-Activation (%): (58) %
  Geometric Mean with ≥2-Fold-Activation: 3.4 fold
  Range with ≥2-Fold-Activation: 2.4-5.7 fold
  N with ≥2-Fold-Activation: 7 of 12
[2]; 1,000 nM, one value per subject (IDs 172-183)
  Fold HIV-1 Activation: 2.7 fold and 2.4 fold and 3.3 fold and 1.2 fold and 4.7 fold and 0.3 fold (2×) and 3.4 fold and 3.0 fold and 1.3 fold and 1.6 fold and 5.7 fold
[2]; 10, 100, or 1000 nM
  Geometric Mean with ≥2-Fold-Activation: 4.4 fold
  Range with ≥2-Fold-Activation: 2.2-20.1 fold
  N with ≥2-Fold-Activation: 9 out of 12 and 9 of 12
[2]; Example 15 1000 nM
  Subjects with ≥2-Fold-Activation (%): 50%
  N with ≥2-Fold-Activation: 3 of 6
[2]; Example 15 1000 nM, N = 6
  Fold HIV-1 Activation, Geometric Mean: 2.1 fold
[2]; Example 15 1000 nM, one value per subject (IDs 205-210)
  Fold HIV-1 Activation: 0.6 fold and 4.7 fold and 0.8 fold and 9.7 fold and 2.0 fold and 1.9 fold
Monocytes; 10 nM vs DMSO, 2 days, N = 6
  Monocytes CD11c Fold: 0.6 fold
  Monocytes CD69 Fold: 0.3 fold
  Monocytes CD80 Fold: 1.1 fold
Monocytes; 10 nM, 2 days, N = 6
  Monocytes CD11c %: 0.4%
  Monocytes CD69 %: 0.8%
  Monocytes CD80 %: 33.0%
Monocytes; 100 nM vs DMSO, 2 days, N = 6
  Monocytes CD11c Fold: 5.2 fold
  Monocytes CD69 Fold: 0.6 fold
  Monocytes CD80 Fold: 1.6 fold
Monocytes; 100 nM, 2 days, N = 6
  Monocytes CD11c %: 3.6%
  Monocytes CD69 %: 1.8%
Monocytes; 1000 nM vs DMSO, 2 days, N = 6
  Monocytes CD11c Fold: 1.6 fold
  Monocytes CD69 Fold: 2.0 fold
  Monocytes CD80 Fold: 3.0 fold
Monocytes; 1000 nM, 2 days, N = 6
  Monocytes CD11c %: 1.2%
  Monocytes CD69 %: 6.2%
Monocytes; 3000 nM vs DMSO, 2 days, N = 6
  Monocytes CD11c Fold: 2.1 fold
  Monocytes CD69 Fold: 2.6 fold
  Monocytes CD80 Fold: 2.7 fold
Monocytes; 3000 nM, 2 days, N = 6
  Monocytes CD11c %: 1.5%
  Monocytes CD69 %: 7.9%
Monocytes; increased expression of CD11c
  Concentration of maximal activation of monocytes: 100 nM
Monocytes; increased expression of CD69
  Concentration of maximal activation of monocytes: 3000 nM
Monocytes; increased expression of CD80
  Concentration of maximal activation of monocytes: 1000 nM
B Cells; 10 nM vs DMSO
  B Cells CD69 Fold: 1.2 fold
  B Cells CD80 Fold: 1.6 fold
B Cells; 10 nM
  B Cells CD69 %: 10.0%
  B Cells CD80 %: 2.6%
B Cells; 100 nM vs DMSO
  B Cells CD69 Fold: 0.5 fold
  B Cells CD80 Fold: 1.1 fold
B Cells; 100 nM
  B Cells CD69 %: 3.9%
  B Cells CD80 %: 1.7%
B Cells; 1000 nM vs DMSO
  B Cells CD69 Fold: 1.1 fold
  B Cells CD80 Fold: 1.4 fold
B Cells; 1000 nM
  B Cells CD69 %: 9.1%
  B Cells CD80 %: 2.2%
B Cells; 3000 nM vs DMSO
  B Cells CD69 Fold: 1.7 fold
  B Cells CD80 Fold: 1.9 fold
B Cells; 3000 nM
  B Cells CD80 %: 3.0%
B Cells; increased expression of CD69 and CD80
  Concentration of maximal activation of B cells: 3000 nM
